Each molecule was assayed on IL-1β release from THP-1 cells (assay: IL-1β Release Assay (Alternate Method), THP-1 cells). Settings: Homo sapiens, THP-1, read-out: IL-1β % inhibition.
Format: cell-based, human
Outline: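 THP-1 cells differentiated 16 h with 100 ng/mL LPS plus 100 ng/mL IFN-γ, reprimed 2 h with 100 ng/mL LPS, pretreated 30 min with compound, then challenged 45 min with 250 uM BzATP (final). Supernatant IL-1β quantified by ELISA; percent inhibition from background-adjusted levels versus untreated cells.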
`O=C(CC12CC3CC(CC(C3)C1)C2)Nc1ncnc2c1CCN(Cc1ccccc1)C2` [Compound 5, 2-Adamantan-1-yl-N-(7-benzyl-5,6,7,8-tetrahydro-pyrido[3,4-d]pyrimidin-4-yl)-acetamide] showed an inhibition at 0.3 µM of 25 to 50%.
`O=C(CC12CC3CC(CC(C3)C1)C2)Nc1ncnc2c1CCN(CC(O)CO)C2` (stereo not shown) [Compound 23, 2-Adamantan-1-yl-N-[7-(2,3-dihydroxy-propyl)-5,6,7,8-tetrahydro-pyrido[3,4-d]pyrimidin-4-yl]-acetamide] showed an inhibition at 0.3 µM of 0 to 25%.
`O=C(CC12CC3CC(CC(C3)C1)C2)Nc1ncnc2c1CCN(CCO)C2` [Compound 18, 2-Adamantan-1-yl-N-[7-(2-hydroxy-ethyl)-5,6,7,8-tetrahydro-pyrido[3,4-d]pyrimidin-4-yl]-acetamide] was tested, and the inhibition at 0.3 µM was 0 to 25%.

Same assay, conditions: Homo sapiens; at 0.3 μM; THP-1 cells, BzATP-stimulated; read-out: IL-1β % inhibition
`O=C(CC12CC3CC(CC(C3)C1)C2)Nc1cccc2c1C=CN(Cc1ccc(F)cc1)C2` [Compound 636] showed an inhibition at 0.3 µM of 0 to 25%.

Same assay, conditions: Homo sapiens; at 0.3 μM; THP-1 cells; read-out: IL-1β % inhibition
`O=C(CC12CC3CC(CC(C3)C1)C2)Nc1ncnc2c1CCN(C(=O)c1ccccc1)C2` [Compound 220] was tested, and the inhibition at 0.3 µM was > 75%.
With `COCC(O)CN1CCc2c(ncnc2NC(=O)CC23CC4CC(CC(C4)C2)C3)C1` (stereo not shown) [Compound 13, 2-adamantan-1-yl-N-[7-(2-hydroxy-3-methoxy-propyl)-5,6,7,8-tetrahydro-pyrido[3,4-d]pyrimidin-4-yl]-acetamide] the inhibition at 0.3 µM was 0 to 25%.

Same assay, conditions: at 0.3 μM; THP-1 cells
`O=C(CC12CC3CC(CC(C3)C1)C2)Nc1ncnc2c1CCN(C(=O)c1ccnc(Cl)c1)C2` [Compound 298] was tested, and the IL-1β % inhibition was “++++ (compound exhibited 75% or greater inhibition at 0.3 μM)”.
With `O=C(CC12CC3CC(CC(C3)C1)C2)Nc1ncnc2c1CCN(C(=O)Cc1ccc(Cl)cc1)C2` [Compound 265] the IL-1β % inhibition was “++ (compound exhibited 25-50% inhibition at 0.3 μM)”.
For `COc1ccc(CN2CCc3c(ncnc3NC(=O)CC34CC5CC(CC(C5)C3)C4)C2)c(OC)c1` [Compound 30], the IL-1β % inhibition was “++++ (compound exhibited 75% or greater inhibition at 0.3 μM)”.
In the case of `Cc1ccc(Cl)c(CN2CCc3c(ncnc3NC(=O)CC34CC5CC(CC(C5)C3)C4)C2)c1F` [Compound 87], the IL-1β % inhibition is reported as “++ (compound exhibited 25-50% inhibition at 0.3 μM)”.
`COc1cccc(S(=O)(=O)N2CCc3c(ncnc3NC(=O)CC34CC5CC(CC(C5)C3)C4)C2)c1` [Compound 162] was tested, and the IL-1β % inhibition was “+ (compound exhibited 0-25% inhibition at 0.3 μM)”.
`Cc1ccc(C(=O)N2CCc3c(ncnc3NC(=O)CC34CC5CC(CC(C5)C3)C4)C2)cc1` [Compound 291] was tested, and the IL-1β % inhibition was “++++ (compound exhibited 75% or greater inhibition at 0.3 μM)”.
For `O=C(CC1CCCCCC1)Nc1ncnc2c1CCN(CC1CCCC1)C2` [Compound 128], the IL-1β % inhibition was “+ (compound exhibited 0-25% inhibition at 0.3 μM)”.
`Cc1cccc(C(=O)N2CCc3c(ncnc3NC(=O)CC34CC5CC(C)(CC(C)(C5)C3)C4)C2)c1` [Compound 382] was tested, and the IL-1β % inhibition was “++ (compound exhibited 25-50% inhibition at 0.3 μM)”.
`O=C(CC12CC3CC(CC(C3)C1)C2)Nc1ncnc2c1CCN(Cc1ccc(Cl)c(C(F)(F)F)c1)C2` [Compound 325] was tested, and the IL-1β % inhibition was “+ (compound exhibited 0-25% inhibition at 0.3 μM)”.
`CC(C)(C)CC(=O)N1CCc2c(ncnc2NC(=O)CC23CC4CC(CC(C4)C2)C3)C1` [Compound 262] was tested, and the IL-1β % inhibition was “+ (compound exhibited 0-25% inhibition at 0.3 μM)”.
`O=C(CC12CC3CC(CC(C3)C1)C2)Nc1ncnc2c1CCN(C(=O)c1ccncc1)C2` [Compound 304] was tested, and the IL-1β % inhibition was “+ (compound exhibited 0-25% inhibition at 0.3 μM)”.
`Cc1ccccc1CN1CCc2c(ncnc2NC(=O)CC23CC4CC(CC(C4)C2)C3)C1` [Compound 31] was tested, and the IL-1β % inhibition was “+++ (compound exhibited 50-75% inhibition at 0.3 μM)”.
For `CC(C)(C)CC(=O)N1CCc2c(ncnc2NC(=O)C(C)(C)C23CC4CC(CC(C4)C2)C3)C1` [Compound 367], the IL-1β % inhibition was “+ (compound exhibited 0-25% inhibition at 0.3 μM)”.
`CC(C)(C(=O)Nc1ncnc2c1CCN(Cc1ccccc1)C2)C12CC3CC(CC(C3)C1)C2` [Compound 339] was tested, and the IL-1β % inhibition was “+ (compound exhibited 0-25% inhibition at 0.3 μM)”.
For `CC12CC3CC(C)(C1)CC(CC(=O)Nc1ncnc4c1CCN(C(=O)C1CCCCC1)C4)(C3)C2` [Compound 386], the IL-1β % inhibition was “++ (compound exhibited 25-50% inhibition at 0.3 μM)”.
In the case of `O=C(CC12CC3CC(CC(C3)C1)C2)Nc1ncnc2c1CCN(C(=O)Cc1ccccc1Br)C2` [Compound 302], the IL-1β % inhibition is reported as “+++ (compound exhibited 50-75% inhibition at 0.3 μM)”.
In the case of `Cc1ccc(CN2CCc3c(ncnc3NC(=O)CC3CCCCCC3)C2)s1` [Compound 125], the IL-1β % inhibition is reported as “+ (compound exhibited 0-25% inhibition at 0.3 μM)”.
`COc1ccc(C(=O)N2CCc3c(ncnc3NC(=O)CC34CC5CC(CC(C5)C3)C4)C2)cc1OC` [Compound 312] was tested, and the IL-1β % inhibition was “+ (compound exhibited 0-25% inhibition at 0.3 μM)”.
In the case of `O=C(CC1CCCCCC1)Nc1ncnc2c1CCN(Cc1ccccn1)C2` [Compound 94], the IL-1β % inhibition is reported as “+ (compound exhibited 0-25% inhibition at 0.3 μM)”.
For `O=C(CC12CC3CC(CC(C3)C1)C2)Nc1ncnc2c1CCN(Cc1ccc(Cl)cc1)C2` [Compound 41], the IL-1β % inhibition was “+ (compound exhibited 0-25% inhibition at 0.3 μM)”.
`Cc1c(S(=O)(=O)N2CCc3c(ncnc3NC(=O)CC34CC5CC(CC(C5)C3)C4)C2)cnn1-c1ccccc1` [Compound 160] was tested, and the IL-1β % inhibition was “++++ (compound exhibited 75% or greater inhibition at 0.3 μM)”.
With `CC(=O)N1CCC(C(=O)N2CCc3c(ncnc3NC(=O)CC34CC5CC(CC(C5)C3)C4)C2)CC1` [Compound 295] the IL-1β % inhibition was “+ (compound exhibited 0-25% inhibition at 0.3 μM)”.
`O=C(CC1CCCCCC1)Nc1ncnc2c1CCN(Cc1ccc(F)cc1)C2` [Compound 130] was tested, and the IL-1β % inhibition was “+ (compound exhibited 0-25% inhibition at 0.3 μM)”.
`O=C(CC12CC3CC(CC(C3)C1)C2)Nc1ncnc2c1CCN(S(=O)(=O)c1c(F)cccc1F)C2` [Compound 206] was tested, and the IL-1β % inhibition was “+ (compound exhibited 0-25% inhibition at 0.3 μM)”.
With `O=C(CC12CC3CC(CC(C3)C1)C2)Nc1ncnc2c1CCN(C(=O)c1ccc(F)cc1)C2` [Compound 251] the IL-1β % inhibition was “+ (compound exhibited 0-25% inhibition at 0.3 μM)”.
With `COc1ccc(C(=O)N2CCc3c(ncnc3NC(=O)CC34CC5CC(CC(C5)C3)C4)C2)cc1F` [Compound 310] the IL-1β % inhibition was “+++ (compound exhibited 50-75% inhibition at 0.3 μM)”.
With `O=C(CC12CC3CC(CC(C3)C1)C2)Nc1ncnc2c1CCN(Cc1ccccn1)C2` [Compound 61] the IL-1β % inhibition was “+ (compound exhibited 0-25% inhibition at 0.3 μM)”.
For `COc1ccc(CN2CCc3c(ncnc3NC(=O)CC34CC5CC(CC(C5)C3)C4)C2)cc1OC` [Compound 36], the IL-1β % inhibition was “+ (compound exhibited 0-25% inhibition at 0.3 μM)”.
With `O=C(NCC1CCCCC1)c1ncnc2c1CCN(Cc1ccc(Cl)cc1)C2` [Compound 51] the IL-1β % inhibition was “+ (compound exhibited 0-25% inhibition at 0.3 μM)”.
With `CCC(=O)N1CCc2c(ncnc2NC(=O)CC23CC4CC(CC(C4)C2)C3)C1` [Compound 223] the IL-1β % inhibition was “+ (compound exhibited 0-25% inhibition at 0.3 μM)”.
`O=C(CC12CC3CC(CC(C3)C1)C2)Nc1ncnc2c1CCN(C(=O)c1cc(C(F)(F)F)ccc1Cl)C2` [Compound 271] was tested, and the IL-1β % inhibition was “++++ (compound exhibited 75% or greater inhibition at 0.3 μM)”.
With `O=C(CC12CC3CC(CC(C3)C1)C2)Nc1ncnc2c1CCN(S(=O)(=O)c1cc(F)ccc1F)C2` [Compound 203] the IL-1β % inhibition was “+ (compound exhibited 0-25% inhibition at 0.3 μM)”.
In the case of `O=C(CC12CC3CC(CC(C3)C1)C2)Nc1ncnc2c1CCN(Cc1c(F)cccc1C(F)(F)F)C2` [Compound 111], the IL-1β % inhibition is reported as “++ (compound exhibited 25-50% inhibition at 0.3 μM)”.
In the case of `O=C(CC12CC3CC(CC(C3)C1)C2)Nc1ncnc2c1CCN(S(=O)(=O)c1ccc(F)cc1)C2` [Compound 152], the IL-1β % inhibition is reported as “+ (compound exhibited 0-25% inhibition at 0.3 μM)”.
`COc1ccc(F)cc1CN1CCc2c(ncnc2NC(=O)CC23CC4CC(CC(C4)C2)C3)C1` [Compound 102] was tested, and the IL-1β % inhibition was “+ (compound exhibited 0-25% inhibition at 0.3 μM)”.
In the case of `O=C(CC12CC3CC(CC(C3)C1)C2)Nc1ncnc2c1CCN(S(=O)(=O)c1cc(Cl)ccc1F)C2` [Compound 205], the IL-1β % inhibition is reported as “+ (compound exhibited 0-25% inhibition at 0.3 μM)”.

Same assay, conditions: at 0.3 μM; THP-1 cells, BzATP-stimulated
With `O=C(c1ccc(Cl)c(Cl)c1)N1CCc2c(ncnc2NC(=O)C23CC4CC(CC(C4)C2)C3)C1` [Compound 417] the IL-1β % inhibition was “+ (compound exhibited 0-25% inhibition at 0.3 μM)”.
With `Cc1cc(C)cc(S(=O)(=O)N2CCc3c(ncnc3NC(=O)C34CC5CC(CC(C5)C3)C4)C2)c1` [Compound 550] the IL-1β % inhibition was “+ (compound exhibited 0-25% inhibition at 0.3 μM)”.
In the case of `O=C(c1ccc(Cl)cc1Cl)N1CCc2c(ncnc2NC(=O)C23CC4CC(CC(C4)C2)C3)C1` [Compound 430], the IL-1β % inhibition is reported as “++ (compound exhibited 25-50% inhibition at 0.3 μM)”.
In the case of `COc1ccc(CN2CCc3c(ncnc3NC(=O)C34CC5CC(CC(C5)C3)C4)C2)cc1OC` [Compound 566], the IL-1β % inhibition is reported as “+ (compound exhibited 0-25% inhibition at 0.3 μM)”.
With `O=C(Nc1ncnc2c1CCN(S(=O)(=O)c1ccccc1C(F)(F)F)C2)C12CC3CC(CC(C3)C1)C2` [Compound 528] the IL-1β % inhibition was “++ (compound exhibited 25-50% inhibition at 0.3 μM)”.
With `Cc1nn(C)c(C)c1S(=O)(=O)N1CCc2c(ncnc2NC(=O)C23CC4CC(CC(C4)C2)C3)C1` [Compound 531] the IL-1β % inhibition was “++ (compound exhibited 25-50% inhibition at 0.3 μM)”.
For `CS(=O)(=O)N1CCc2c(ncnc2NC(=O)C23CC4CC(CC(C4)C2)C3)C1` [Compound 480], the IL-1β % inhibition was “+ (compound exhibited 0-25% inhibition at 0.3 μM)”.
In the case of `Cc1ccc(S(=O)(=O)N2CCc3c(ncnc3NC(=O)C34CC5CC(CC(C5)C3)C4)C2)cc1` [Compound 482], the IL-1β % inhibition is reported as “++ (compound exhibited 25-50% inhibition at 0.3 μM)”.
With `O=C(Nc1ncnc2c1CCN(CC(c1ccccc1)c1ccccc1)C2)C12CC3CC(CC(C3)C1)C2` [Compound 553] the IL-1β % inhibition was “++ (compound exhibited 25-50% inhibition at 0.3 μM)”.
`O=C(Nc1ncnc2c1CCN(S(=O)(=O)c1ccc(F)cc1)C2)C12CC3CC(CC(C3)C1)C2` [Compound 490] was tested, and the IL-1β % inhibition was “+++ (compound exhibited 50-75% inhibition at 0.3 μM)”.

From patent publication US7297700B2, “Bicycloheteroaryl compounds as P2X7 modulators and uses thereof” (Renovis, Inc., priority 2005, dated 2007)
